These results are taken from article PMC11121470, “Leveraging the Fragment Molecular Orbital and MM-GBSA Methods in Virtual Screening for the Discovery of Novel Non-Covalent Inhibitors Targeting the TEAD Lipid Binding Pocket” (International Journal of Molecular Sciences, 2024).

Experiment [1] concerns TEAD. As to the kind of experiment: TEAD luciferase reporter assay in MCF7 cells. Format: cell-based. Particulars: for IC50: Homo sapiens. As to the method: (§1) Stable cell lines, namely MCF7 cell TEAD luciferase cells, were maintained in Dulbecco’s modified Eagle medium (DMEM) containing 10% fetal bovine serum, penicillin, and streptomycin, at 37 °C, in a humidified incubator containing 5% CO2. To construct an MCF7-TEAD luciferase stable cell line, MCF7 cells were infected with a TEAD luciferase reporter lentivirus using polybrene (Millipore, Burlington, MA, USA) and then selected with puromycin. The stable cell lines NCI-[…] and NCI-H28 were maintained in Roswell Park Memorial Institute (RPMI) medium.
TEAD luciferase reporter MCF7 cells were seeded into 96-well white plates (3 × 10^4 cells per well). The medium was replaced with DMEM without fetal bovine serum (FBS; 100 μL per well), and the cells were treated with various concentrations of compounds (0.001–10 μmol/L) for 24 h. Fifty microliters of the medium containing compounds was removed from each well, following which 50 μL of FBS in 10% DMEM was added to the cells and incubated for 6 h. Luciferase activity was measured using the One-Glo® Luciferase Assay Kit from Promega (Madison, WI, USA). A small portion of the medium was removed (60 μL) from each well, and 40 μL of One-Glo® Luciferase assay buffer containing reagent was added in its place. Luminescence was measured using a VICTOR® Nivo™ multimode microplate reader (PerkinElmer, Waltham, MA, USA) and normalized to the results of the vehicle.

Another experiment has as its system H226 cancer cell. The experiment is described as follows: Cell viability assay (CellTiter-Glo 2.0), H226. Type of experiment: cell-based. Particulars: Homo sapiens, NCI-H226, 144 h, H226 cells, n = 3. As to the method:
as §1
(§2) Cells were seeded into 96-well plates (1 × 10^3 cells per well) and changed to RPMI with 1% FBS, and then treated with various concentrations (0.0001–10 μmol/L) of compounds (MGH-CP1, BC-010, BC-011, and BC-013) for 144 h. The medium was replaced with 1% FBS + RPMI containing compounds every 3 d. Cell viability was measured using the CellTiter-Glo® 2.0 Cell Viability Assay Kit from Promega. Before the viability was measured, the drug treatment medium was removed and replaced with 50 μL of FBS-free RPMI and 50 μL of CellTiter-Glo® 2.0 reagent. The cells with medium replacement were incubated for 1 h at room temperature, to prevent exposure to light. Luminescence was measured using a VICTOR® Nivo™ multimode microplate reader (PerkinElmer) and normalized to the results of the vehicle.

The test system of another experiment is H28 cancer cell line. The experiment is described as follows: Cell viability assay (CellTiter-Glo 2.0), H28. Format: cell-based. Particulars: for IC50: Homo sapiens, NCI-H28, H28 cells, 144 h, n = 3. As to the method: as §1, §2
Experiment [2] concerns TEAD. The following applies: cited from earlier work.
For experiment [3], the system named is TEAD. Particulars: cited from earlier work. This is another data set of the same source.
Experiment [4] deals with TEAD target genes Ctgf and Cyr61. The experiment is described as follows: mRNA expression of TEAD target genes by qRT-PCR in H226 cells. Format: cell-based. The following applies: 24 h, 1, 5 and 10 μM, n = 3. As to the method:
H226 cells were seeded at a density of 1 × 10^5 cells/well into a 12-well plate. After treatment with various concentrations (1, 5, and 10 μM) of the compounds, the cells were incubated at 37 °C for 24 h. RNA extraction was performed using the RNeasy Plus Mini Kit (QIAGEN, Hilden, Germany), as per the manufacturer’s protocol. Extracted RNA was quantified using a NanoDrop™ One Microvolume UV–Vis Spectrophotometer (Thermo Fisher, Waltham, MA, USA). cDNA was synthesized using 1000 ng of quantified RNA and an iScript™ cDNA Synthesis Kit (Bio-Rad, Hercules, CA, USA). qRT-PCR was carried out using PowerUp™ SYBR™ Green Master Mix (Thermo Fisher) and primers (hCTGF-F: CCAATGACAACGCCTCCTG, hCTGF-R: TGGTGCAGCCAGAAAGCTC, hCYR61-F: […], hCYR61-R: […], hβ-actin-F: […], hβ-actin-R: […]), with the results normalized to those of the vehicle.

Another experiment addresses TEAD2. Set-up: method as in PMID 26592798. Particulars: reference compounds of Figure 1; cited from earlier work.
Where [5] appears, read: 1 nM to 10 μM, n = 2, read-out: IC50, TEAD reporter luciferase assay.
[6] abbreviates: reference compounds of Figure 1 and FMO section.
The mark [7] stands for this setting: reference compounds of Figure 1.
Where [8] appears, read: Vivace compounds, ref 45 (WO202097389A1).

Entries after “also recorded” stand apart in the source; their conditions may differ. Where two headings read alike, the source gives them in different places. A value given as a limit tells only on which side of the number the result lay.

Consider `O=C(CSc1nnc[nH]1)Nc1ccc(C23CC4CC(CC(C4)C2)C3)cc1` [MGH-CP1, reference compound], for which the IC50 in the experiment with TEAD [1] (setting [5]) is 219 nM; with H226 cancer cell, 1190 nM; in the experiment on H28 cancer cell line it was 1720 nM; in the experiment with TEAD [2] (setting [6]), 1920 nM. In the case of `COc1ccc(C(=O)NN)cc1COc1ccc(Cl)cc1` [BC-003], the “TEAD reporter luciferase activity (in words)” value with TEAD [1] is “retained the same activity as BC-001”. Also, in the experiment on TEAD [1] (setting [5]), the IC50 came to 3990 nM. `COc1ccc(C(=O)NN)cc1COc1ccc(C(F)(F)F)cc1` [BC-010]: the IC50 in the experiment on TEAD [1] (setting [5]) turned out to be 768 nM; with H226 cancer cell, 930 nM; in the experiment on H28 cancer cell line, 9100 nM.

Consider `COC(=O)c1ccc(OC)c(COc2ccccc2)c1` [BC-009], for which the IC50 with TEAD [1] (setting [5]) is 2610 nM. In the case of `COc1ccc(C=C(C#N)C#N)cc1COc1cc(C)c(Cl)c(C)c1` [BC-004], the “TEAD reporter luciferase activity (in words)” value in the experiment on TEAD [1] is reported as “did not exhibit any activity”. Moreover, the IC50 in the experiment with TEAD [1] (1 nM to 10 μM, n = 2, printed in figure as 10uM<, read-out: IC50, TEAD reporter luciferase assay) is above 10000 nM.

Turning to `Cn1cc2c3cc(C(=O)O)ccc3n(-c3ccc(C(F)(F)F)cc3)c2n1` [MSC-4106], in the experiment with TEAD [2] (setting [6]), the IC50 is 4 nM. As to `O=C(CCl)c1ccccc1Nc1cccc(C(F)(F)F)c1` [TED–347], in the experiment on TEAD [2] (reference compound of Figure 1), the EC50 was 5900 ± 400 nM.

Regarding `COc1ccc(C(=O)O)cc1COc1ccc(C(F)(F)F)cc1` [BC-012], the IC50 in the experiment on TEAD [1] (setting [5]) was 8900 nM. With `COc1ccc(C(=O)O)cc1COc1ccccc1` [BC-008], the IC50 with TEAD [1] (setting [5]) is above 10000 nM. As to `CC(NC(=O)c1cnc2c(-c3ccc(C(F)(F)F)cc3)cccc2c1)c1ccccn1` (centres unmarked) [VT-105], in the experiment on TEAD [2] (setting [6]), the IC50 was 10.4 nM. With `COc1c(C)cc(N2C[C@@H](O)[C@@H](O)C2=O)cc1/C=C/c1ccc(Cl)cc1` [Compound 1 (Genentech)], the IC50 in the experiment on TEAD [2] (setting [7]) is 2800 nM. As to `O=C(O)c1cnc2c(cnn2C2CCCC2)c1` [Fragment 1(Merck)], the IC50 in the experiment with TEAD [2] (setting [7]) is 16000 nM. As to `COC(=O)c1ccc(OC)c(COc2ccc(C(F)(F)F)cc2)c1` [BC-013], the results for the concentration for half-maximal inhibition (IC50) in the experiment on TEAD [1] (setting [5]), in the experiment on H226 cancer cell and in the experiment with H28 cancer cell line were 417 nM, 2250 nM and 9320 nM, respectively. For the compound `C[C@H](NC(=O)c1ccc2c(-c3ccc(C(F)(F)F)cc3)cccc2c1)c1ccccn1` [VT-104], the half-maximal inhibitory concentration (IC50) in the experiment on TEAD [3] (setting [8]) was 10 nM. Regarding `C=CC(=O)N1C[C@@H](n2cc(-c3cccnc3)nn2)[C@H](OCc2ccc(C(F)(F)F)cc2)C1` [MYF–03–69], the half-maximal inhibitory concentration (IC50) with TEAD [2] (setting [6]) was 385 nM. With `COc1ccc(C(N)=O)cc1COc1ccc(C(F)(F)F)cc1` [BC-011], the IC50 in the experiment with TEAD [1] (setting [5]) was 72.4 nM; in the experiment on H226 cancer cell, 488 nM; with H28 cancer cell line, above 10000 nM. Further, the “Effect on viability (in words)” value in the experiment with H28 cancer cell line (H28 cancer cell line) was “did not show any inhibitory effects”. For the same compound, in experiment [4], the “Ctgf mRNA expression” value is given as “significantly downregulated; also recorded: decreased”. Further, in experiment [4], the “Cyr61 mRNA expression” value is on record as “significantly downregulated; also recorded: decreased”. As to `COc1ccc(C(=O)NN)cc1COc1ccccc1` [BC-006], in the experiment on TEAD [1] (setting [5]), the 50% inhibitory concentration (IC50) was 1520 nM.

Regarding `C=CC(=O)Nc1ccc(C)c(Oc2ccc(Cl)cc2)c1` [K–975], the IC50 in the experiment with TEAD [2] (setting [6]) is below 100 nM.

As for `COc1ccc(C(=O)NN)cc1COc1ccc(Br)cc1` [BC-002], in the experiment on TEAD [1], the “TEAD reporter luciferase activity (in words)” value is “retained the same activity as BC-001”. For the same compound, the IC50 with TEAD [1] (setting [5]) was determined as 2890 nM.

Consider `COc1ccc(C(N)=O)cc1COc1ccccc1` [BC-007], for which the 50% inhibitory concentration (IC50) with TEAD [1] (setting [5]) came to 5610 nM. Turning to `Cn1cc2c3cc(C(=O)O)ccc3n(-c3ccc(F)cc3)c2n1` [Merck_20], the IC50 in the experiment with TEAD [3] (Merck compounds, ref 40 (WO2021224291A1)) is 1900 nM. In the case of `O=C(O)c1ccccc1Nc1cccc(Br)c1` [Bromofenamic acid, bromofenamic acid], the Kd at TEAD2 was 234000 nM.

Regarding `COc1ncc(NS(C)(=O)=O)cc1/C=C/C1CCC(F)(F)CC1` [Compound 2], the IC50 in the experiment on TEAD [2] (setting [6]) is 263 nM.

Consider `NNC(=O)c1cccc(COc2ccc(Cl)cc2)c1` [BC-005], for which the “TEAD reporter luciferase activity (in words)” value with TEAD [1] is “increased”.

`O=C(O)c1ccccc1Nc1cccc(C(F)(F)F)c1` [Flufenamic acid, flufenamic acid]: the Kd on TEAD2 was 73000 nM. `C[C@@H](CN(C)C)NC(=O)c1ccc2c(-c3ccc(C(F)(F)F)cc3)cccc2c1` [EX64]: the 50% inhibitory concentration (IC50) with TEAD [3] (setting [8]) is 1000 to 3000 nM.

On to `COc1ccc(C(=O)NN)cc1COc1ccc(Cl)c(C)c1` [BC-001], for which the IC50 with TEAD [1] (setting [5]) turned out to be 3680 nM; in the experiment with TEAD [1] (read-out: IC50, reporter assay) it was 3700 nM.

For the compound `O=C(Nc1ccccc1)N1CCN(C(=O)c2cccc(OCCC3CCCCC3)c2)CC1` [TM2], the IC50 with TEAD [2] (setting [7]) is 152 nM.
